In one test the target is Kir1.1 (ROMK1) (Homo sapiens (Human), UniProt P48048). Briefly: Electrophysiology Assay (whole cell voltage clamp, IonWorks Quattro). In kind it is cell-based. The following applies: block during voltage step to 0 mV. Here is the method:
Chinese hamster ovary cells stably expressing Kir1.1 channels were maintained in T-75 flasks in cell culture media in a humidified 10% CO2 incubator at 37° C. Prior to an experiment, Kir1.1 expression was induced by overnight incubation with 1 mM sodium butyrate. […] After centrifugation, the cell pellet was resuspended in approximately 4.0 mL of bath solution and placed in the IonWorks instrument. The intracellular solution consisted of (in mM): 80 K gluconate, 40 KCl, 20 KF, 3.2 MgCl2, 3 EGTA, 5 Hepes, pH 7.4. Electrical access to the cytoplasm was achieved by perforation in 0.13 mg/mL amphotericin B for 4 min. […] Voltage protocols and current recordings were performed using the IonWorks HT software/hardware system. Currents were sampled at 1 kHz. No correction for liquid junction potentials was used. The test pulse, consisting of a 100 ms step to 0 mV from a holding potential of −70 mV, followed by a 100 ms voltage ramp from −70 mV to +70 mV, was applied before and after a 6 min compound incubation period. Test compounds were prepared by diluting DMSO stock solutions into the bath solution at 3× the final concentration and placed in the instrument in 96-well polypropylene plates. Current amplitudes were measured using the IonWorks software.

In another test the target is hROMK (hKir1.1) (Homo sapiens (Human), UniProt P48048). The test can be described thus: Thallium Flux Assay (ROMK channel functional thallium flux, FLIPR-Tetra). In kind it is cell-based. Here is the method:
HEK293 cells stably expressing hROMK (hKir1.1) were grown at 37° C. in a 10% CO2 humidified incubator in complete growth media: Dulbecco's Modified Eagle Medium supplemented with non-essential amino acids, Penicillin/Streptomycin/Glutamine, G418 and FBS. At >80% confluency, aspirate the media from the flask and rinse with 10 mL Calcium/Magnesium-free PBS. […] To dislodge the cell, gently bang the side of the flask with your hand. Triturate the cells completely and then transfer the cells to 25 mL complete media. Centrifuge at 1,500 rpm for 6 min followed by resuspension in complete growth media and determine cell concentration.
Compound Buffer (per microplate): 20 mL Probenecid/Assay Buffer; 0.3 mM ouabain (10 mM ouabain in water can be stored in amber bottle/aluminum foil at room temperature); Test compound
Stimulant Buffer (prepared at 5× final concentration in 1× FluxOR™ Chloride-Free Buffer): 7.5 mM Thallium sulfate and […] (to give a final assay concentration of 3 mM Thallium/0.3 mM Potassium). Store at 4° C. when not in use. If kept sterile, this solution is good for months.
The ROMK channel functional thallium flux assay is performed in 384 wells, using the FLIPR-Tetra instrument. HEK-hKir1.1 cells are seeded in Poly-D-Lysine microplates and kept in a 37° C.-10% CO2 incubator overnight. On the day of the experiment, the growth media is replaced with the FluxOR™ reagent loading buffer and incubated, protected from light, at ambient temperature (23-25° C.) for 90 min. The loading buffer is replaced with assay buffer±test compound followed by 30 min incubation at ambient temperature, where the Thallium/Potassium stimulant is added to the microplate.
1. Seed HEK-hKir1.1 cells (50 μl at 20,000 cells/well) in 384-well PDL coated Microplates
2. Allow cells to adhere overnight in humidified 37° C./10% CO2 incubator
3. Completely remove cell growth media from microplate and replace with 25 μl loading buffer
4. Incubate Microplate at room temperature, protected form light, for 90 min
5. Remove loading buffer and replace with 25 μl 1× Assay Buffer±test compound.
6. Incubate microplate at room temperature, protected from light, for 30 min
7. […] Excitation=400 nm, Emission=460 & 580 nm. Collect data for ˜10 min.
The fluorescence intensity of wells containing 3 μM of a standard control ROMK inhibitor of the present invention is used to define the ROMK-sensitive component of thallium flux. Fluorescence in the presence of test compounds is normalized to control values to provide % fluorescence change.

Setting [1] is: Chinese hamster ovary cells stably expressing Kir1.1, read-out: Electrophysiology IC50.
The mark [2] stands for this setting: HEK293 cells stably expressing hROMK (hKir1.1), read-out: Thallium Flux IC50.
The mark [3] stands for this setting: Electrophysiology IC50, Chinese hamster ovary cells stably expressing Kir1.1.

Molecules are shown by their SMILES. Structures can show the parent of a compound that is named as a salt. Where two headings read alike, the source gives them in different places.

Sequence of hROMK (hKir1.1) (P48048 whole entry): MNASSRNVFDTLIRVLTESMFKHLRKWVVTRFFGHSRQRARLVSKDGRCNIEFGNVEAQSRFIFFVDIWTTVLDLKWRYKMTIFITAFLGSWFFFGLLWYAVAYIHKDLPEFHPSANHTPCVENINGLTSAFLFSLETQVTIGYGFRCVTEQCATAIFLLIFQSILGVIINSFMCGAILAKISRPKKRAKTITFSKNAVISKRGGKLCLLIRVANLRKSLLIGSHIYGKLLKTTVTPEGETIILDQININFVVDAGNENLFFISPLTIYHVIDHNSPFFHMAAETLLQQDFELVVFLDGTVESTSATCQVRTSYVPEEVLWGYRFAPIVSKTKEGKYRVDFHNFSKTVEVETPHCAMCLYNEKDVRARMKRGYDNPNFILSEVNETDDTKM
Sequence of Kir1.1 (ROMK1) (P48048 whole entry, species assumed): as the sequence (P48048 whole entry) above

The term IC50 denotes the concentration at which inhibition is half-maximal. Regarding `Cc1c(CCN2CCN3C[C@@H](c4ccc5c(c4)CCOC5=O)OC[C@@H]3C2)ccc2c1COC2=O` [Example 73], the IC50 at Kir1.1 (ROMK1) (setting [1]) worked out at 300 nM; on hROMK (hKir1.1) (setting [2]), 570 nM.
The corresponding values for `Cc1c([C@@H]2CN3CCN(CC(O)c4ccc5c(c4)C[C@H](C)OC5=O)C[C@H]3CO2)ccc2c1COC2=O` (single isomer, unassigned) [Example 45] are 120 nM and 470 nM.
Turning to `Cc1cc2c(cc1C(O)CN1CCN3C[C@@H](c4ccc(F)c(C#N)c4C)OC[C@@H]3C1)COC2=O` (single isomer, unassigned) [Example 25, trifluoroacetate], the IC50 against Kir1.1 (ROMK1) (setting [3]) turned out to be 190 nM; against hROMK (hKir1.1) (Thallium Flux IC50, HEK293 cells stably expressing hROMK (hKir1.1)), 340 nM.
For the compound `COc1cc([C@H]2CN3CCN(C[C@H](O)c4ccc5c(c4C)COC5=O)C[C@@H]3CO2)cc(F)c1C#N` [Example 53, (3S,9aR)-3-(4-cyano-3-fluoro-5-methoxyphenyl)-8-[(2R)-2-hydroxy-2-(4-methyl-1-oxo-1,3-dihydro-2-benzofuran-5-yl)ethyl]octahydropyrazino[2,1-c][1,4]oxazin-8-ium chloride], the IC50 came out at 80 nM at Kir1.1 (ROMK1) (setting [1]) and 240 nM at hROMK (hKir1.1) (setting [2]).
`COc1cc(CCN2CCN3C[C@@H](c4ccc5c(c4C)COC5=O)OC[C@@H]3C2)ccc1C#N` [Example 56, 2-methoxy-4-(2-((3R,9aS)-3-(4-methyl-1-oxo-1,3-dihydroisobenzofuran-5-yl)hexahydropyrazino[2,1-c][1,4]oxazin-8(1H)-yl)ethyl)benzonitrile]: the results for the IC50 at Kir1.1 (ROMK1) (setting [1]) and on hROMK (hKir1.1) (setting [2]) were 70 nM and 40 nM, respectively.
On to `COc1c(CCN2CCN3C[C@H](c4ccc5c(c4C)COC5=O)OC[C@H]3C2)ccc(C#N)c1F` [Example 94], for which the IC50 on Kir1.1 (ROMK1) (setting [1]) amounted to 140 nM; on hROMK (hKir1.1) (setting [2]), 240 nM.
As for `Cc1c([C@@H]2CN3CCN(C4CCc5cc(C#N)ccc5C4)C[C@H]3CO2)ccc2c1COC2=O` (stereo partly drawn) [Example 100, (3R,9aS)-8-(6-cyano-1,2,3,4-tetrahydronaphthalen-2-yl)-3-(4-methyl-1-oxo-1,3-dihydro-2-benzofuran-5-yl)octahydropyrazino[2,1-c][1,4]oxazin-5-ium trifluoroacetate], the IC50 is 210 nM on Kir1.1 (ROMK1) (setting [1]) and 30 nM on hROMK (hKir1.1) (setting [2]).
As for `COc1cc(C(O)CN2CCN3C[C@@H](c4ccc5c(c4C)COC5=O)OC[C@@H]3C2)c(F)cc1C#N` (single isomer, unassigned) [Example 37], the IC50 amounted to 110 nM on Kir1.1 (ROMK1) (setting [1]) and 470 nM on hROMK (hKir1.1) (setting [2]).
The corresponding values for `COc1cc([C@@H]2CN3CCN(CCc4ccc5c(c4C)COC5=O)C[C@H]3CO2)ccc1C#N` [Example 71] are 200 nM and 110 nM.
The corresponding values for `Cc1c([C@@H](O)CN2CCN3C[C@@H](c4ccc5c(c4)COC5=O)OC[C@@H]3C2)ccc2c1COC2=O` [Example 11, (3R,9aS)-8-[(2R)-2-hydroxy-2-(4-methyl-1-oxo-1,3-dihydro-2-benzofuran-5-yl)ethyl]-3-(1-oxo-1,3-dihydro-2-benzofuran-5-yl)octahydropyrazino[2,1-c][1,4]oxazin-5-ium trifluoroacetatep] are 60 nM and 360 nM.
Turning to `Cc1c([C@@H]2CN3CCN(CCc4ccc5c(c4)COC5=O)C[C@H]3CN2)ccc(F)c1C#N` [Example 103], the results for the IC50 on Kir1.1 (ROMK1) (setting [1]) and at hROMK (hKir1.1) (setting [2]) were 60 nM and 140 nM, respectively.
The corresponding values for `Cc1c([C@@H]2CN3CCN(CCc4ccc5c(c4)C[C@@H](C)OC5=O)C[C@H]3CO2)ccc2c1COC2=O` [Example 87] are 50 nM and 110 nM.
As for `Cc1c([C@@H](O)CN2CCN3C[C@@H](c4cc(F)c(C#N)c(F)c4)OC[C@@H]3C2)ccc2c1COC2=O` [Example 52, (3R,9aS)-3-(4-cyano-3,5-difluorophenyl)-8-[(2R)-2-hydroxy-2-(4-methyl-1-oxo-1,3-dihydro-2-benzofuran-5-yl)ethyl]octahydropyrazino[2,1-c][1,4]oxazin-8-ium chloride], the IC50 stood at 100 nM on Kir1.1 (ROMK1) (setting [1]) and 410 nM at hROMK (hKir1.1) (setting [2]).
As for `COc1cc(C(O)CN2CCN3C[C@@H](c4ccc5c(c4)COC5=O)OC[C@@H]3C2)c(Cl)cc1C#N` (stereo partly drawn) [Example 10, (3R,9aS)-8-[2-(2-chloro-4-cyano-5-methoxyphenyl)-2-hydroxyethyl]-3-(1-oxo-1,3-dihydro-2-benzofuran-5-yl)octahydropyrazino[2,1-c][1,4]oxazin-5-ium trifluoroacetate], the 50% inhibitory concentration (IC50) was found to be 130 nM on Kir1.1 (ROMK1) (setting [1]) and 550 nM on hROMK (hKir1.1) (setting [2]).
In the case of `COc1cc([C@@H]2CN3CCN(CCc4ccc5c(c4C)COC5=O)C[C@@H]3CO2)ccc1C#N` [Example 76], the IC50 on Kir1.1 (ROMK1) (setting [1]) stood at 90 nM; on hROMK (hKir1.1) (setting [2]), 440 nM.
For `Cc1c([C@H]2CN3CCN(CCc4ccc5c(c4C)COC5=O)C[C@H]3CO2)ccc(F)c1C#N` [Example 79] the same measures were 70 nM and 270 nM.
The corresponding values for `Cc1c([C@@H]2CN3CCN(CC(O)c4cc(F)c(C#N)c(F)c4)C[C@H]3CO2)ccc2c1COC2=O` (single isomer, unassigned) [Example 49] are 50 nM and 250 nM.
The corresponding values for `COc1cc(C(O)CN2CCN3C[C@H](c4ccc5c(c4C)COC5=O)OC[C@H]3C2)c(F)cc1C#N` (stereo partly drawn) [Example 36, (3S,9aR)-8-[2-(4-cyano-2-fluoro-5-methoxyphenyl)-2-hydroxyethyl]-3-(4-methyl-1-oxo-1,3-dihydro-2-benzofuran-5-yl)octahydropyrazino[2,1-c][1,4]oxazin-5-ium chloride] are 120 nM and 390 nM.
With `Cc1c([C@H]2CN3CCN(CCc4ccc5c(c4)COC5=O)C[C@@H]3CN2)ccc(F)c1C#N` [Example 106], the values for the IC50 at Kir1.1 (ROMK1) (setting [1]) and on hROMK (hKir1.1) (setting [2]) were 50 nM and 130 nM, respectively.
The corresponding values for `Cc1c([C@@H]2CN3CCN(CCc4ccc5c(c4)C[C@H](C)OC5=O)C[C@H]3CO2)ccc(F)c1C#N` [Example 88] are 50 nM and 190 nM.
For `COc1c([C@@H]2CN3CCN(C[C@H](O)c4ccc5c(c4C)COC5=O)C[C@@H]3CO2)ccc(C#N)c1F` [Example 32, (3R,9aR)-3-(4-cyano-3-fluoro-2-methoxyphenyl)-8-[(2R)-2-hydroxy-2-(4-methyl-1-oxo-1,3-dihydro-2-benzofuran-5-yl)ethyl]octahydropyrazino[2,1-c][1,4]oxazin-8-ium chloride] the same measures were 180 nM and 280 nM.
For `COc1c(CCN2CCN3C[C@@H](c4ccc5c(c4C)COC5=O)OC[C@@H]3C2)ccc(C#N)c1F` [Example 95] the same measures were 110 nM and 120 nM.
Take `COc1cc([C@H]2CN3CCN(CC(O)c4cc(OC)c(C#N)cc4F)C[C@@H]3CO2)ccc1C#N` (stereo partly drawn) [Example 14, (3S,9aR)-8-[2-(4-cyano-2-fluoro-5-methoxyphenyl)-2-hydroxyethyl]-3-(4-cyano-3-methoxyphenyl)octahydropyrazino[2,1-c][1,4]oxazin-5-ium chloride]: the values for the IC50 on Kir1.1 (ROMK1) (setting [1]) and at hROMK (hKir1.1) (setting [2]) were 270 nM and 580 nM, respectively.
Turning to `Cc1cc(-n2cnnn2)ncc1C(O)CN1CCN2C[C@@H](c3ccc(F)c(C#N)c3C)OC[C@@H]2C1` (single isomer, unassigned) [Example 19], the IC50 turned out to be 260 nM against Kir1.1 (ROMK1) (setting [3]) and 440 nM at hROMK (hKir1.1) (setting [2]).

For the origin of these results see patent publication US9604998B2, “Inhibitors of the renal outer medullary potassium channel” (MERCK SHARP & DOHME CORP., priority 2013, dated 2017).
